{
  "source": "PubChem BioAssay (NCI)",
  "test_in_all_cases": "NCI-60 cell line screen, 48 h",
  "key": {"DU-145 prostate": {"test_system": "DU-145 prostate"}, "RPMI-8226 leukemia": {"test_system": "RPMI-8226 leukemia"}, "NCI-H23 lung": {"test_system": "NCI-H23 lung"}, "SF-539 CNS": {"test_system": "SF-539 CNS"}, "EKVX NSCLC": {"test_system": "EKVX NSCLC"}, "HCC-2998 colon": {"test_system": "HCC-2998 colon"}, "M14 melanoma": {"test_system": "M14 melanoma"}, "OVCAR-8 ovarian": {"test_system": "OVCAR-8 ovarian"}, "786-0 renal": {"test_system": "786-0 renal"}, "SK-MEL-28 melanoma": {"test_system": "SK-MEL-28 melanoma"}, "ACHN renal": {"test_system": "ACHN renal"}, "TK-10 renal": {"test_system": "TK-10 renal"}, "HOP-92 NSCLC": {"test_system": "HOP-92 NSCLC"}, "MCF7 breast": {"test_system": "MCF7 breast"}, "CAKI-1 renal": {"test_system": "CAKI-1 renal"}, "HCT-116 colon": {"test_system": "HCT-116 colon"}, "OVCAR-3 ovarian": {"test_system": "OVCAR-3 ovarian"}, "KM12 colon": {"test_system": "KM12 colon"}, "NCI-H522 lung": {"test_system": "NCI-H522 lung"}, "SNB-19 CNS": {"test_system": "SNB-19 CNS"}, "U251 CNS": {"test_system": "U251 CNS"}, "RXF 393 renal": {"test_system": "RXF 393 renal"}, "SF-268 CNS": {"test_system": "SF-268 CNS"}, "SF-295 CNS": {"test_system": "SF-295 CNS"}, "MDA-MB-435": {"test_system": "MDA-MB-435"}, "SK-MEL-2 melanoma": {"test_system": "SK-MEL-2 melanoma"}, "BT-549 breast": {"test_system": "BT-549 breast"}, "SNB-75 CNS": {"test_system": "SNB-75 CNS"}, "T-47D breast": {"test_system": "T-47D breast"}, "A549 NSCLC": {"test_system": "A549 NSCLC"}, "HOP-62 NSCLC": {"test_system": "HOP-62 NSCLC"}, "LOX IMVI melanoma": {"test_system": "LOX IMVI melanoma"}, "HS 578T breast": {"test_system": "HS 578T breast"}, "NCI/ADR-RES ovarian": {"test_system": "NCI/ADR-RES ovarian"}, "A498 renal": {"test_system": "A498 renal"}, "HL-60(TB) leukemia": {"test_system": "HL-60(TB) leukemia"}, "NCI-H226 lung": {"test_system": "NCI-H226 lung"}, "HCT-15 colon": {"test_system": "HCT-15 colon"}, "UACC-257 melanoma": {"test_system": "UACC-257 melanoma"}, "OVCAR-4 ovarian": {"test_system": "OVCAR-4 ovarian"}, "UACC-62 melanoma": {"test_system": "UACC-62 melanoma"}, "COLO 205 colon": {"test_system": "COLO 205 colon"}},
  "note": "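Interpolation was linear, between the two tested concentrations surrounding the appropriate level; five concentrations were tested over 48 hours in 96-well plates. TGI denotes the concentration required for complete inhibition of growth.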",
  "data": [
    {"molecule": "COc1cc2c(cc1OCCCCCOc1cc3c(cc1OC)C(=O)N1CCC[C@H]1C(=O)N3)N=C[C@@H]1CCCN1C2=O", "values": [
      {"measurement": "TGI", "setting": "DU-145 prostate", "result": "> 100000", "unit": "nM"},
      {"measurement": "TGI", "setting": "RPMI-8226 leukemia", "result": 179, "unit": "nM"},
      {"measurement": "TGI", "setting": "NCI-H23 lung", "result": 1890, "unit": "nM"},
      {"measurement": "TGI", "setting": "SF-539 CNS", "result": 56.2, "unit": "nM"},
      {"measurement": "TGI", "setting": "EKVX NSCLC", "result": 9540, "unit": "nM"},
      {"measurement": "TGI", "setting": "HCC-2998 colon", "result": 20900, "unit": "nM"},
      {"measurement": "TGI", "setting": "M14 melanoma", "result": 521, "unit": "nM"},
      {"measurement": "TGI", "setting": "OVCAR-8 ovarian", "result": 31500, "unit": "nM"},
      {"measurement": "TGI", "setting": "786-0 renal", "result": 4710, "unit": "nM"},
      {"measurement": "TGI", "setting": "SK-MEL-28 melanoma", "result": 332, "unit": "nM"},
      {"measurement": "TGI", "setting": "ACHN renal", "result": 4050, "unit": "nM"},
      {"measurement": "TGI", "setting": "TK-10 renal", "result": 253, "unit": "nM"},
      {"measurement": "TGI", "setting": "HOP-92 NSCLC", "result": 97.3, "unit": "nM"},
      {"measurement": "TGI", "setting": "MCF7 breast", "result": 261, "unit": "nM"},
      {"measurement": "TGI", "setting": "CAKI-1 renal", "result": 4250, "unit": "nM"},
      {"measurement": "TGI", "setting": "HCT-116 colon", "result": "> 100000", "unit": "nM"},
      {"measurement": "TGI", "setting": "OVCAR-3 ovarian", "result": 575, "unit": "nM"},
      {"measurement": "TGI", "setting": "KM12 colon", "result": 37100, "unit": "nM"},
      {"measurement": "TGI", "setting": "NCI-H522 lung", "result": 41.9, "unit": "nM"},
      {"measurement": "TGI", "setting": "SNB-19 CNS", "result": "> 100000", "unit": "nM"},
      {"measurement": "TGI", "setting": "U251 CNS", "result": 510, "unit": "nM"},
      {"measurement": "TGI", "setting": "RXF 393 renal", "result": 413, "unit": "nM"},
      {"measurement": "TGI", "setting": "SF-268 CNS", "result": 10400, "unit": "nM"},
      {"measurement": "TGI", "setting": "SF-295 CNS", "result": 5590, "unit": "nM"},
      {"measurement": "TGI", "setting": "MDA-MB-435", "result": 284, "unit": "nM"},
      {"measurement": "TGI", "setting": "SK-MEL-2 melanoma", "result": 666, "unit": "nM"},
      {"measurement": "TGI", "setting": "BT-549 breast", "result": 6670, "unit": "nM"},
      {"measurement": "TGI", "setting": "SNB-75 CNS", "result": 58.8, "unit": "nM"},
      {"measurement": "TGI", "setting": "T-47D breast", "result": "> 100000", "unit": "nM"},
      {"measurement": "TGI", "setting": "A549 NSCLC", "result": "> 100000", "unit": "nM"},
      {"measurement": "TGI", "setting": "HOP-62 NSCLC", "result": 26300, "unit": "nM"},
      {"measurement": "TGI", "setting": "LOX IMVI melanoma", "result": 997, "unit": "nM"},
      {"measurement": "TGI", "setting": "HS 578T breast", "result": 4170, "unit": "nM"},
      {"measurement": "TGI", "setting": "NCI/ADR-RES ovarian", "result": 33100, "unit": "nM"},
      {"measurement": "TGI", "setting": "A498 renal", "result": 1100, "unit": "nM"},
      {"measurement": "TGI", "setting": "HL-60(TB) leukemia", "result": 1510, "unit": "nM"},
      {"measurement": "TGI", "setting": "NCI-H226 lung", "result": 750, "unit": "nM"},
      {"measurement": "TGI", "setting": "HCT-15 colon", "result": "> 100000", "unit": "nM"},
      {"measurement": "TGI", "setting": "UACC-257 melanoma", "result": 707, "unit": "nM"},
      {"measurement": "TGI", "setting": "OVCAR-4 ovarian", "result": 716, "unit": "nM"},
      {"measurement": "TGI", "setting": "UACC-62 melanoma", "result": 193, "unit": "nM"},
      {"measurement": "TGI", "setting": "COLO 205 colon", "result": 50.9, "unit": "nM"}
    ]}
  ]
}
